Assay results reported in ChEMBL document CHEMBL3580597 (J Med Chem, 2015).

Tests used:
Protein polybromo-1 = Protein polybromo-1 (Homo sapiens, UniProt Q86U86); experiment: Binding affinity to biotinylated PB1BR5 (645 to 766 amino acid residues) (unknown origin) expressed in Rosetta2 cells by bio-layer interferometry method
[1] = target: T1, ATPase family AAA domain-containing protein 2 (Homo sapiens, UniProt Q6PL18); experiment: Binding affinity to biotinylated ATAD2A (981 to 1108 amino acid residues) (unknown origin) expressed in Rosetta2 DE3 cells by bio-layer interferometry method
T1 sequence (Q6PL18 whole entry): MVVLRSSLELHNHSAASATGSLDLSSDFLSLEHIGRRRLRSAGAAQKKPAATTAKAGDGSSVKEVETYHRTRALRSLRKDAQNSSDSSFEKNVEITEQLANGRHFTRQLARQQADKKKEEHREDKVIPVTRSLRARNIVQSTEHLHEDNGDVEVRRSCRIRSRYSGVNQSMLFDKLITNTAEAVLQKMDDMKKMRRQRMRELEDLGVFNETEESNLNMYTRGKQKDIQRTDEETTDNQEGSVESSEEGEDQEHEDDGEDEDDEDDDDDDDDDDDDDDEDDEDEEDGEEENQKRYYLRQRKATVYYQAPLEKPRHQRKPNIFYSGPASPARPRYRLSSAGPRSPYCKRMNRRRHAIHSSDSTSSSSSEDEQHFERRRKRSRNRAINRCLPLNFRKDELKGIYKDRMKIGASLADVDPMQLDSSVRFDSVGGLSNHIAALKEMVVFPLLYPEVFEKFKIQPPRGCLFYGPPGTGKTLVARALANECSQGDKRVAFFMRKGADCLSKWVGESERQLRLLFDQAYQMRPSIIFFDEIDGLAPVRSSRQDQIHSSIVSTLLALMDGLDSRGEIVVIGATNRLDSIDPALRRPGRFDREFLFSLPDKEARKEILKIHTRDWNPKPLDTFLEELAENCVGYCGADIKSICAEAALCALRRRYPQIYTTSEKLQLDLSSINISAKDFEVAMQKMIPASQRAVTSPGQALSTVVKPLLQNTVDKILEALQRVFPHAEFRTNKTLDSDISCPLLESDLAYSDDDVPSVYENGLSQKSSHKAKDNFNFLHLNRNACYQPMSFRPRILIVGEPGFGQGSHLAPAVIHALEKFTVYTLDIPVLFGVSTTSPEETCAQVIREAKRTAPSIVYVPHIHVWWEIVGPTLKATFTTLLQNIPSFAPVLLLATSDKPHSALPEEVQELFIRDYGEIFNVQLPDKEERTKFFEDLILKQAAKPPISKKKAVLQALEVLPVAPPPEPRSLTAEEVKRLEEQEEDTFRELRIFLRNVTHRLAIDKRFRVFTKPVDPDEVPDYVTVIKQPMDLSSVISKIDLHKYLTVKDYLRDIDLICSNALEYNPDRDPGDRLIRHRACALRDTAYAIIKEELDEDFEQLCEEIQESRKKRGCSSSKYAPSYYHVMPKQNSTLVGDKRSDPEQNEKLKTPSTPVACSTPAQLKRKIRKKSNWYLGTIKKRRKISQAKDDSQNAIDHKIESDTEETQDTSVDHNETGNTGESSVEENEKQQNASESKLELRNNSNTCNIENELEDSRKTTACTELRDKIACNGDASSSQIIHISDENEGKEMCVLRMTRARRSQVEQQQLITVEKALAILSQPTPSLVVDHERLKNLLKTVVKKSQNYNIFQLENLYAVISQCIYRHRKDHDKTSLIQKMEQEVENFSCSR

[2] = target: Transcription initiation factor TFIID subunit 1 (Homo sapiens, UniProt P21675); experiment: Binding affinity to biotinylated TAF1B2 (155 to 276 amino acid residues) (unknown origin) expressed in Rosetta2 cells by bio-layer interferometry method
Sequence of Transcription initiation factor TFIID subunit 1 (P21675 whole entry, the tested form may be a part): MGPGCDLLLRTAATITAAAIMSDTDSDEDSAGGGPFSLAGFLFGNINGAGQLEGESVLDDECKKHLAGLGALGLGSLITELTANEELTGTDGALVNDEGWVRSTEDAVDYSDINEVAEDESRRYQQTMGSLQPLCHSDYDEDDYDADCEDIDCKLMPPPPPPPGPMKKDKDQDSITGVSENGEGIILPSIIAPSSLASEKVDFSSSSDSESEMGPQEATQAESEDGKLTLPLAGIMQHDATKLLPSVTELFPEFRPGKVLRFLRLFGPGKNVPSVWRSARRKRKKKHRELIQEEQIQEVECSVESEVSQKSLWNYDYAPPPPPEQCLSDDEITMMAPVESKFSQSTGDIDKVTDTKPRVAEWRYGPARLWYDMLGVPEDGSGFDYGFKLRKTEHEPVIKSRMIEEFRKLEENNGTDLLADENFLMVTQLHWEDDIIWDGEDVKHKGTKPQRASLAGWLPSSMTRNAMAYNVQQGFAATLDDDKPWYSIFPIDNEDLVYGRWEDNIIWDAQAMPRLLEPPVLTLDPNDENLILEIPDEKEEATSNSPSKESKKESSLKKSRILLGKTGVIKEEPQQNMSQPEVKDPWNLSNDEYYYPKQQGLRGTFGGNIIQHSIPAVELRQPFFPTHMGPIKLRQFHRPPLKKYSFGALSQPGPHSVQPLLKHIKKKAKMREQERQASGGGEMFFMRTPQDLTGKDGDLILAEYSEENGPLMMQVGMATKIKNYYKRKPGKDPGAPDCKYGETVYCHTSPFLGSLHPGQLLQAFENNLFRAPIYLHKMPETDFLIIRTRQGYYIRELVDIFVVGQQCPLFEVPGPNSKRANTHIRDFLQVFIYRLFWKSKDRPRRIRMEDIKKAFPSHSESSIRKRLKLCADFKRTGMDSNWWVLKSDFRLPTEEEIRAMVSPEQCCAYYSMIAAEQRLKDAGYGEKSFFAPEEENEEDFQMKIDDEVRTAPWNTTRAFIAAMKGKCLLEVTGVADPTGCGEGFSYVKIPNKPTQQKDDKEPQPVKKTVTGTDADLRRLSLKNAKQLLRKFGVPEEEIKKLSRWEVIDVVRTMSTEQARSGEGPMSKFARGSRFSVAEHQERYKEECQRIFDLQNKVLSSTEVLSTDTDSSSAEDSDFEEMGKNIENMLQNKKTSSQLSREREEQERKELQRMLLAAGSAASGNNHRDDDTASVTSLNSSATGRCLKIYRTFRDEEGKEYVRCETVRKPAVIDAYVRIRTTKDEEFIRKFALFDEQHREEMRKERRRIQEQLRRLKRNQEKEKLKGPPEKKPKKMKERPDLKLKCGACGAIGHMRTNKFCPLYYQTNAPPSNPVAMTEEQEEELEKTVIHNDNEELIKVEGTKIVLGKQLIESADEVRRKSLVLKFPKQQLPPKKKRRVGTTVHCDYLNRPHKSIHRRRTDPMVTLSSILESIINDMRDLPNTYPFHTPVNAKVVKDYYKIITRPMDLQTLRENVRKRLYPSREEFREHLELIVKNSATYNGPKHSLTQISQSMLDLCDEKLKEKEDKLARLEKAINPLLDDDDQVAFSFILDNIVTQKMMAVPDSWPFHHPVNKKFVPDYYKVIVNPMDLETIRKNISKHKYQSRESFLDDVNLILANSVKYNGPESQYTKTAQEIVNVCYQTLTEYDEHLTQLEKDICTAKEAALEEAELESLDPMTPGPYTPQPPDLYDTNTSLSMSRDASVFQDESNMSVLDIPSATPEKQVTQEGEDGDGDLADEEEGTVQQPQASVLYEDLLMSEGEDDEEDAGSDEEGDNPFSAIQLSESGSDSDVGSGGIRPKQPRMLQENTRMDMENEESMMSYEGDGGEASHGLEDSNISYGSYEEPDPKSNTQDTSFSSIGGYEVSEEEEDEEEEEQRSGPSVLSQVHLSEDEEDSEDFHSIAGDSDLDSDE

[3] = target: T2, Transcription intermediary factor 1-alpha (Homo sapiens, UniProt O15164); experiment: Binding affinity to biotinylated TRIM24 (790 to 972 amino acid residues) (unknown origin) expressed in Rosetta2 DE3 cells by bio-layer interferometry method
T2 sequence (O15164 whole entry): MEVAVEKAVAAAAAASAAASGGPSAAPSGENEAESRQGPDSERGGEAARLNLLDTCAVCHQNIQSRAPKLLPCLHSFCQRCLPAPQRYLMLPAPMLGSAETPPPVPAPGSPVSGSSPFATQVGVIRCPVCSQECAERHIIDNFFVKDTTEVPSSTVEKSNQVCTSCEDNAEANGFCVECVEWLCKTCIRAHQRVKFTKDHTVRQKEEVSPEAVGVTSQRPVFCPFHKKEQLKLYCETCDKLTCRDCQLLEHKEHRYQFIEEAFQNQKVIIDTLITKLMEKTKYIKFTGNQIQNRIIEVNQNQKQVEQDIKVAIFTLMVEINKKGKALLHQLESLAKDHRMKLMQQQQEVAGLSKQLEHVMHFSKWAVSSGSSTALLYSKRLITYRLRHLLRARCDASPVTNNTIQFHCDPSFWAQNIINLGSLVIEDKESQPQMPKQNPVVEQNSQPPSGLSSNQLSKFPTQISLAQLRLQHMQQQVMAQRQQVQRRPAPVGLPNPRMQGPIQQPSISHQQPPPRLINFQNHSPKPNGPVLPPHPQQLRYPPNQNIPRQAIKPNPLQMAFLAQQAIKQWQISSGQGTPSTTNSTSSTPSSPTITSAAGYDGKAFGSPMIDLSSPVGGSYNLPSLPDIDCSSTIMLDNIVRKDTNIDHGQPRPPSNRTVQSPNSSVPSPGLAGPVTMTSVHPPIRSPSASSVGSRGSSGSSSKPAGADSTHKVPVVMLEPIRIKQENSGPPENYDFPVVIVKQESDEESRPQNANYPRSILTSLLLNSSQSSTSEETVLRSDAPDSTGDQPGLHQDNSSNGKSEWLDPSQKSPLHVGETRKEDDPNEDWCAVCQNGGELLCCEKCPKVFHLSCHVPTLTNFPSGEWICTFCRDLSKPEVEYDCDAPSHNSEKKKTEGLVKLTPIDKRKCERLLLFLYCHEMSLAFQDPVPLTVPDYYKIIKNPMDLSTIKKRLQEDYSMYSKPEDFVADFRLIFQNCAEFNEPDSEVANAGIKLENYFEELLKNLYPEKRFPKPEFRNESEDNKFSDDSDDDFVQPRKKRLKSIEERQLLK

[4] = target: Bromodomain adjacent to zinc finger domain protein 2B (Homo sapiens, UniProt Q9UIF8); experiment: Binding affinity to biotinylated BAZ2B (2054 to 2168 amino acid residues) (unknown origin) expressed in Rosetta2 DE3 cells by bio-layer interferometry method
CREB-binding protein = CREB-binding protein (Homo sapiens, UniProt Q92793); experiment: Binding affinity to biotinylated CREBBP (1043 to 1159 amino acid residues) (unknown origin) expressed in Rosetta2 DE3 cells by bio-layer interferometry method
Sequence of CREB-binding protein (Q92793 whole entry, the tested form may be a part): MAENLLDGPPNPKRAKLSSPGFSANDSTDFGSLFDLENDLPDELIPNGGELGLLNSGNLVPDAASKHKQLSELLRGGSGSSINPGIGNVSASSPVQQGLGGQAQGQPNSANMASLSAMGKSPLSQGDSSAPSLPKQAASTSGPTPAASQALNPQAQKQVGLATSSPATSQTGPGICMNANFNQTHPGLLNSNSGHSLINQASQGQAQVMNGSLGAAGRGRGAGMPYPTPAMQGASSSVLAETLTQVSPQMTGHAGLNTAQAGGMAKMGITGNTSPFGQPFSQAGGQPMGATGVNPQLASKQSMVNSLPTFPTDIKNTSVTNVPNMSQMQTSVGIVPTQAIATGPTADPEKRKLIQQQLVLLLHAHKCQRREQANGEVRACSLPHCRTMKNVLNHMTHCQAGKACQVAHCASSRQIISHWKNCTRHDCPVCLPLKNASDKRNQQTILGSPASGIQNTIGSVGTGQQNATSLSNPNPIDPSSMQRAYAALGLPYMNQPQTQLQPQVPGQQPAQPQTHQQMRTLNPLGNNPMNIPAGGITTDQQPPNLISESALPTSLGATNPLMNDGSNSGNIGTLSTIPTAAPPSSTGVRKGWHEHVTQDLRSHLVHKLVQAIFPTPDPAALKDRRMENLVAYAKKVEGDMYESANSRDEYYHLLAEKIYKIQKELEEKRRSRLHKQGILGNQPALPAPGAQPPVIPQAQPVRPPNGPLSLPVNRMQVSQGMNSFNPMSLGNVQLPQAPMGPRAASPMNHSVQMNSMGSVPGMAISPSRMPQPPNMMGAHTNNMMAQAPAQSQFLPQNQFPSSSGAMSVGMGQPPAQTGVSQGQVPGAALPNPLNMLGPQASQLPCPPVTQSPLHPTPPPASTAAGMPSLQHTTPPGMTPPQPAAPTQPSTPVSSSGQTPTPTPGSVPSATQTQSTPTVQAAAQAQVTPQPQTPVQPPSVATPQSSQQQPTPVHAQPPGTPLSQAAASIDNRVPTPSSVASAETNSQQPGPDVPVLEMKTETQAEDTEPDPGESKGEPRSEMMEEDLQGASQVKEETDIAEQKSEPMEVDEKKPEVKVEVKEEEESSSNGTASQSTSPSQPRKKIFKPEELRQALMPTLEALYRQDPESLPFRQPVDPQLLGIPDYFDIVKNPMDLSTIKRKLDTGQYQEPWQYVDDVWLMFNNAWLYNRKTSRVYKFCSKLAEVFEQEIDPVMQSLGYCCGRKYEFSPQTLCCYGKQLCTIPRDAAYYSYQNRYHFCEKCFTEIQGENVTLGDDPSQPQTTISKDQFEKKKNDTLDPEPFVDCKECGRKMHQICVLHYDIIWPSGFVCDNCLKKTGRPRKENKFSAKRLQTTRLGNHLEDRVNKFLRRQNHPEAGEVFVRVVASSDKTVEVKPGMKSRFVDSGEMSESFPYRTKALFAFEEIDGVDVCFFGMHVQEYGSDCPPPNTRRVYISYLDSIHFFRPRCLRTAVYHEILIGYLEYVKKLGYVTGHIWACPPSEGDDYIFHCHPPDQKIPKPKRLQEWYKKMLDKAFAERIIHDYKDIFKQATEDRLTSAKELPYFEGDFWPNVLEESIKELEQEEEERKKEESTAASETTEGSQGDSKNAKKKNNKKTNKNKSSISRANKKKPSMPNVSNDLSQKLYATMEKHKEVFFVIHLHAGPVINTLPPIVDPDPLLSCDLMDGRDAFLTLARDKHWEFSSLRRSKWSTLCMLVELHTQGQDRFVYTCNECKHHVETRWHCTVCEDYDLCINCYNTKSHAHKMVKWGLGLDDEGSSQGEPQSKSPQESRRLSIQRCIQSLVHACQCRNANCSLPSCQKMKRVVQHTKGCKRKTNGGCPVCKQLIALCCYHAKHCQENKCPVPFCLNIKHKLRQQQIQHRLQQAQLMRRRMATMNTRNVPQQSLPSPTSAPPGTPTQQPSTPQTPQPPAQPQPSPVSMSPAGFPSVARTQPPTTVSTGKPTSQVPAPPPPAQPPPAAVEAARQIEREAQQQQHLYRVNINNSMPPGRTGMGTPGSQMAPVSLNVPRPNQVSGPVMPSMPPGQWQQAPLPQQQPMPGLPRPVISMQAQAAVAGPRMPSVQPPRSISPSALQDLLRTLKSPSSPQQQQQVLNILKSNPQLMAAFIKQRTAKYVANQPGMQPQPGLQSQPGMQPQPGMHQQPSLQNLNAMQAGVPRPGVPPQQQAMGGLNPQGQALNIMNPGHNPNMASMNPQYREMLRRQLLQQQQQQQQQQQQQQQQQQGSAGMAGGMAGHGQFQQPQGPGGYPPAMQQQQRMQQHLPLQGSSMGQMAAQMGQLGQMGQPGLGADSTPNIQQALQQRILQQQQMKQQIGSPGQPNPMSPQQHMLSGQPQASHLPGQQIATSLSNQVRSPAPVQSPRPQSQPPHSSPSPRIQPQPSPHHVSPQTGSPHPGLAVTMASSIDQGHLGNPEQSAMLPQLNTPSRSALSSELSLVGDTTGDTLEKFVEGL

MV4-11 = experiment: cells; assay type: functional, cell-based; conditions: Homo sapiens, MV4-11, 96 h
[5] = target: Bromodomain-containing protein 2 (Homo sapiens, UniProt P25440); experiment: Binding affinity to biotinylated BRD2 BD1 (72 to 205 amino acid residues) (unknown origin) expressed in Rosetta2 DE3 cells by bio-layer interferometry method
Sequence of Bromodomain-containing protein 2 (P25440 whole entry, the tested form may be a part): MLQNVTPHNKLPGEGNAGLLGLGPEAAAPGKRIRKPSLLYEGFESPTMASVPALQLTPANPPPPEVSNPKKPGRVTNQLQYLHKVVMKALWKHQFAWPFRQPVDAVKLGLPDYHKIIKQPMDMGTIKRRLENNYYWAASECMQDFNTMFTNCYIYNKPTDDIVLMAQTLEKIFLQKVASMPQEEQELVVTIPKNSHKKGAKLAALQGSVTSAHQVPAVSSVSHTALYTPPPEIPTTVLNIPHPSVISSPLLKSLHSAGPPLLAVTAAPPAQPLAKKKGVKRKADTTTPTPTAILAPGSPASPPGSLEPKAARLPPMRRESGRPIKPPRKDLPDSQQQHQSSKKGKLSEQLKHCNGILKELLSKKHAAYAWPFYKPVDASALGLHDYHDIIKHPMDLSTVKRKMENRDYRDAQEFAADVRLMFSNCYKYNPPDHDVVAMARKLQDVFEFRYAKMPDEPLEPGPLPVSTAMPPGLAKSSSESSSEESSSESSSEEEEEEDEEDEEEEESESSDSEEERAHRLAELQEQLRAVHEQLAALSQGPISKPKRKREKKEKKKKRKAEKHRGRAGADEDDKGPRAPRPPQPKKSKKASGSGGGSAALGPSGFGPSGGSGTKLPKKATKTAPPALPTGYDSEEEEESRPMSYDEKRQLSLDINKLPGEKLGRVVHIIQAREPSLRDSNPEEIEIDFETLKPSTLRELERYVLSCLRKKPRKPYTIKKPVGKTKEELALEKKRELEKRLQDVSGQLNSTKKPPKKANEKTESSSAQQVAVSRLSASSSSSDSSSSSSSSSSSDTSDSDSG

Q: What does the source list for `COc1cc2c(cc1-c1c(C)noc1C)[nH]c1ccnc(-c3c(C4CC4)n[nH]c3C)c12`?
A: Kd (Protein polybromo-1): > 10 µM; Kd [1]: > 10 µM; Kd [2]: > 10 µM; Kd [3]: 10 µM; Kd [4]: > 10 µM; Kd (CREB-binding protein): 0.67 µM; IC50 (MV4-11): 0.02 µM; Kd [5]: 0.0481 µM
